# Several values for one entry are separate records, joined by “and”; a condition that tells them apart may be missing. Equal entries are not always repeated. Where two headings read alike, the source gives them in different places.
# Legend:
# Ba/F3^myr-Akt3 cells = test: CellTiter-Glo cell viability assay; details: for Log ratio EC50 [Akt] / EC50 [Akt], Akt3 / Akt2: cell viability assay Ba/F3 myr-Akt cells, log units
# Method: (§1) On day 0, cells were plated into white 384-well cell culture plates (Greiner Bio-One) using a Multidrop reagent dispenser (Thermo Fisher Scientific) at cell numbers that ensure linear and optimal luminescent signal intensity (Ba/F3myr-Akt1: 600 cells/well, Ba/F3myr-Akt2: 800 cells/well, Ba/F3myr-Akt3: 800 cells/well). […] Cell viability was analyzed on day 4 using the CellTiter-Glo Assay (Promega) as per the manufacturer’s instructions. […] All experimental points were measured in duplicates for each plate and were replicated in at least three plates.
# Ba/F3^myr-Akt1 cells = test: CellTiter-Glo cell viability assay; details: for Log ratio EC50 [Akt] / EC50 [Akt], Akt1 / Akt2: cell viability assay Ba/F3 myr-Akt cells, log units
# Ba/F3^myr-Akt2 cells = test: CellTiter-Glo cell viability assay
# parental Ba/F3 cells = test: CellTiter-Glo cell viability assay; type: cell-based, murine
# Method: as §1
# Akt2 = Akt2 (Homo sapiens, UniProt P31751); test: STK HTRF KinEASE activity-based assay (IC50)
# Chain of Akt2 (P31751 whole entry): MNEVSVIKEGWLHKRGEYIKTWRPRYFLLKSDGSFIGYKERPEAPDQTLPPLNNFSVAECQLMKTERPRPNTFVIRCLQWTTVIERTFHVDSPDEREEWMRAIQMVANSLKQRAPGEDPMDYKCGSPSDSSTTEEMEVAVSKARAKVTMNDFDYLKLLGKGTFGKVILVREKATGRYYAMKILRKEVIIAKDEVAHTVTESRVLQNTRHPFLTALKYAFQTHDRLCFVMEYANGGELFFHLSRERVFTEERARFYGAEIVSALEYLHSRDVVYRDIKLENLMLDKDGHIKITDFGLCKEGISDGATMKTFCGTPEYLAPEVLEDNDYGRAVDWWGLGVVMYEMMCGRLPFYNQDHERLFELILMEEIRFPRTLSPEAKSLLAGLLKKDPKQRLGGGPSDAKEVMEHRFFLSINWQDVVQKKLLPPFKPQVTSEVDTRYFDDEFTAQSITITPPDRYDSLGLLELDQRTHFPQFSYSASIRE
# Akt3 = Akt3 (Homo sapiens, UniProt Q9Y243); test: STK HTRF KinEASE activity-based assay (IC50)
# Chain of Akt3 (Q9Y243 whole entry): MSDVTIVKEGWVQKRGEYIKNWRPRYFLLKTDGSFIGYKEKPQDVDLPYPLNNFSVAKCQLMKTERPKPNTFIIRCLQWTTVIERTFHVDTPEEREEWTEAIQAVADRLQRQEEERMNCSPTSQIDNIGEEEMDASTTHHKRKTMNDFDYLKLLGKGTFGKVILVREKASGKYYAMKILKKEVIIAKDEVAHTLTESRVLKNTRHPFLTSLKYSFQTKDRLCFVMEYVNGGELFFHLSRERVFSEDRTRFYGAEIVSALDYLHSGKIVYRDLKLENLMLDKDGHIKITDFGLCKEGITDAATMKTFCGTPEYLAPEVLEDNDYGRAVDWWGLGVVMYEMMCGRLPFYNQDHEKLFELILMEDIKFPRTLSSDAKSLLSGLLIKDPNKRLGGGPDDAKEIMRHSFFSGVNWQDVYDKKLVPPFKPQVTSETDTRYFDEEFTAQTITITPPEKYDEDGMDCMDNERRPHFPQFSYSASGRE
# Akt1 = Akt1 (Homo sapiens, UniProt P31749); test: STK HTRF KinEASE activity-based assay (IC50); details: for Log ratio IC50 [Akt] / IC50 [Akt], Akt1 / Akt2: biochemical activity based assay, log units
# Chain of Akt1 (P31749 whole entry): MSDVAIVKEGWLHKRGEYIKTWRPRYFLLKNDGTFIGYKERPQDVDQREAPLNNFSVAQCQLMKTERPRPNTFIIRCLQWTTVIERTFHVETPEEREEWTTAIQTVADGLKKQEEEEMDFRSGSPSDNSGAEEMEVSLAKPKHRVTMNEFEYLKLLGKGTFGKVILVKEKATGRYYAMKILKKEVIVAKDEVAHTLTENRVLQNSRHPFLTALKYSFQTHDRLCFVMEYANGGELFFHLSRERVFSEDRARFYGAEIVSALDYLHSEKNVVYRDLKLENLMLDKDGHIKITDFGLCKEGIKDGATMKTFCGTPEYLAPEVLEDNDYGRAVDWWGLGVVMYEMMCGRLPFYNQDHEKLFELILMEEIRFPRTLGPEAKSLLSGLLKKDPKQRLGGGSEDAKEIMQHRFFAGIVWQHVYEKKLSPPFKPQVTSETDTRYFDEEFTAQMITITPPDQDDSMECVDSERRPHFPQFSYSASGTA
# [1] = Mus musculus, read-out: CTG BaF3myr-Akt3, Mean, mean of replicates
# [2] = Mus musculus, read-out: CTG BaF3myr-Akt3, individual determinations, single replicates
# [3] = read-out: CTG BaF3myr-Akt3, individual determinations, single replicates
# [4] = Mus musculus, read-out: CTG BaF3myr-Akt1, Mean, mean of replicates
# [5] = Mus musculus, read-out: CTG BaF3myr-Akt1, individual determinations, single replicates
# [6] = read-out: CTG BaF3myr-Akt1, individual determinations, single replicates
# [7] = Mus musculus, read-out: CTG BaF3myr-Akt2, Mean, mean of replicates
# [8] = read-out: CTG BaF3myr-Akt2, individual determinations, single replicates
# [9] = Mus musculus, BaF3, parental cells, mean of replicates, read-out: CTG BaF3, Mean
# [10] = Mus musculus, BaF3, parental cells, single replicates, read-out: CTG BaF3, individual determinations
# [11] = parental cells, single replicates, read-out: CTG BaF3, individual determinations
# [12] = HTRF IC50 Akt2, Mean, mean of replicates
# [13] = HTRF IC50 Akt2, individual determinations, single replicates
# [14] = IC50 Akt2, HTRF, ATP at KM, 1 h preincubation
# [15] = HTRF IC50 Akt3, Mean, mean of replicates
# [16] = HTRF IC50 Akt3, individual determinations, single replicates
# [17] = IC50 Akt3, HTRF, ATP at KM, 1 h preincubation
# [18] = HTRF IC50 Akt1, Mean, mean of replicates
# [19] = HTRF IC50 Akt1, individual determinations, single replicates
# [20] = IC50 Akt1, HTRF, ATP at KM, 1 h preincubation
Structure (SMILES),EC50 (Ba/F3^myr-Akt3 cells; [1]) [µM],EC50 (Ba/F3^myr-Akt3 cells; [2]) [µM],EC50 (Ba/F3^myr-Akt3 cells; [3]),EC50 (Ba/F3^myr-Akt1 cells; [4]) [µM],EC50 (Ba/F3^myr-Akt1 cells; [5]) [µM],EC50 (Ba/F3^myr-Akt1 cells; [6]),EC50 (Ba/F3^myr-Akt2 cells; [7]) [µM],EC50 (Ba/F3^myr-Akt2 cells; [8]),EC50 (parental Ba/F3 cells; [9]) [µM],EC50 (parental Ba/F3 cells; [10]) [µM],EC50 (parental Ba/F3 cells; [11]),"Log ratio EC50 [Akt] / EC50 [Akt], Akt3 / Akt2 (Ba/F3^myr-Akt3 cells)",IC50 (Akt2; [12]) [µM],IC50 (Akt2; [13]),IC50 (Akt2; [14]) [µM],IC50 (Akt3; [15]) [µM],IC50 (Akt3; [16]),IC50 (Akt3; [17]) [µM],"Log ratio EC50 [Akt] / EC50 [Akt], Akt1 / Akt2 (Ba/F3^myr-Akt1 cells)","Log ratio IC50 [Akt] / IC50 [Akt], Akt1 / Akt2 (Akt1)",further results
"NC1(c2ccc(-c3nc4ccn5c(=O)[nH]nc5c4cc3-c3ccccc3)cc2)CCC1 [MK-2206, reference compound]",5.73,5.9,5.57 µM,1.12,1.16,0.987 µM and 1.22 µM,1.34,1.97 µM and 0.931 µM and 1.12 µM,7.39,6.96,5.09 µM and 9.92 µM,–,–,–,–,–,–,–,–,–,–
C=CC(=O)Nc1ccc2[nH]c(=O)n(C3CCN(Cc4ccc(-c5ncc(C)cc5-c5ccccc5)cc4)CC3)c2c1 [compound 2],> 30,> 30,> 30 µM,3.1,2.81,3.52 µM and 2.96 µM,2.79,3.99 µM and 1.13 µM and 1.58 µM,11.5,13.2,10.3 µM and 10.9 µM,-0.46,0.15,0.156 µM and 0.149 µM and 0.144 µM,0.15 ± 0.005,7.51,7.41 µM and 4.78 µM and 10.2 µM and 5.33 µM and 9.79 µM,7.51 ± 1.82,0.05,-0.83,"EC50 (Ba/F3^myr-Akt3 cells; Mus musculus, read-out: EC50 BaF3myr-Akt3, CTG): > 30 µM; IC50 (Akt1; [18]): 0.0218 µM; IC50 (Akt1; [19]): 0.0221 µM and 0.0229 µM and 0.0205 µM; IC50 (Akt1; [20]): 0.022 ± 0.002 µM"
C=CC(=O)Nc1ccc2[nH]c(=O)n(C3CCN(Cc4ccc(-c5ncc(C(=O)O)cc5-c5ccccc5)cc4)CC3)c2c1 [compound 4],–,–,> 30 µM,–,–,> 30 µM,–,> 30 µM,–,–,> 30 µM,0,–,–,–,–,–,–,0,-0.75,"EC50 BaF3myr-Akt3 (Ba/F3^myr-Akt3 cells; CTG): generally inactive; EC50 (Ba/F3^myr-Akt3 cells; read-out: CTG BaF3myr-Akt3, Mean, mean of replicates): > 30 µM; EC50 (Ba/F3^myr-Akt3 cells; read-out: EC50 BaF3myr-Akt3, CTG): > 30 µM; IC50 (Akt2; read-out: HTRF IC50 Akt2, Mean, mean of replicates): 0.248 µM; IC50 (Akt2; read-out: HTRF IC50 Akt2, individual determinations, single replicates): 0.189 µM and 0.309 µM and 0.245 µM; IC50 (Akt2; read-out: IC50 Akt2, HTRF, ATP at KM, 1 h preincubation): 0.248 ± 0.049 µM; IC50 (Akt3; read-out: HTRF IC50 Akt3, individual determinations, single replicates): 5.7 µM and 7.19 µM and 8.39 µM; IC50 (Akt3; read-out: IC50 Akt3, HTRF, ATP at KM, 1 h preincubation): 6.45 ± 0.742 µM; EC50 BaF3myr-Akt1 (Ba/F3^myr-Akt1 cells; CTG): generally inactive; EC50 (Ba/F3^myr-Akt1 cells; read-out: CTG BaF3myr-Akt1, Mean, mean of replicates): > 30 µM; EC50 (Ba/F3^myr-Akt1 cells; read-out: EC50 BaF3myr-Akt1, CTG): > 30 µM; EC50 BaF3myr-Akt2 (Ba/F3^myr-Akt2 cells; CTG): generally inactive; EC50 (Ba/F3^myr-Akt2 cells; read-out: CTG BaF3myr-Akt2, Mean, mean of replicates): > 30 µM; EC50 (Ba/F3^myr-Akt2 cells; read-out: EC50 BaF3myr-Akt2, CTG): > 30 µM; EC50 (parental Ba/F3 cells; CTG, parental BaF3 cell line, read-out: EC50 BaF3): > 30 µM; EC50 (parental Ba/F3 cells; parental cells, mean of replicates, read-out: CTG BaF3, Mean): > 30 µM; IC50 (Akt1; read-out: HTRF IC50 Akt1, Mean, mean of replicates): 0.0443 µM; IC50 (Akt1; read-out: HTRF IC50 Akt1, individual determinations, single replicates): 0.0455 µM and 0.0221 µM and 0.0653 µM; IC50 (Akt1; read-out: IC50 Akt1, HTRF, ATP at KM, 1 h preincubation): 0.044 ± 0.018 µM"
C=CC(=O)Nc1ccc2[nH]c(=O)n(C3CCN(Cc4ccc(-c5ncc(C(=O)OC)cc5-c5ccccc5)cc4)CC3)c2c1 [compound 5],7.65,7.73,7.85 µM and 7.37 µM,4.92,5.83,4.17 µM and 4.75 µM,2.71,3.75 µM and 1.35 µM and 1.68 µM,16.3,18.7,12.7 µM and 17.6 µM,-0.45,0.116,0.119 µM and 0.116 µM and 0.114 µM,0.116 ± 0.002,3.4,3.96 µM and 3.22 µM and 3.01 µM,3.4 ± 0.406,0.26,-0.52,IC50 (Akt1; [18]): 0.0355 µM; IC50 (Akt1; [19]): 0.038 µM and 0.0373 µM and 0.0312 µM; IC50 (Akt1; [20]): 0.035 ± 0.004 µM

# — publication PMC8421423, “Cellular model system to dissect the isoform-selectivity of Akt inhibitors” (Nature Communications, 2021)
